The experiment relates to BDF1 mice, L1210 leukemia sc, survival T/C. Kind of experiment: NCI In Vivo Anticancer Drug Screen. Data for tumor model L1210 Leukemia (subcutaneous) in B6D2F1 (BDF1) mice. Particulars: endpoint: median survival time, higher = longer survival. On the procedure:
The antitumor activity of compounds was measured in mice bearing transplantable tumors. Survival or tumor size were measured and the results are expressed as the measurement made in the treated group (T) divided by the measurement made in the vehicle treated control group (C). The tumor model used in this assay is L1210 Leukemia (subcutaneous) in B6D2F1 (BDF1) mice

[1] abbreviates: dose: 39.0 mg/kg/injection, schedule: Q01DX Z (sc), vehicle: methylcellulose (MC).
The mark [2] stands for this setting: dose: 180.0 mg/kg/injection, schedule: Q01DX Z (sc), vehicle: methylcellulose (MC).
Setting [3] is: dose: 300.0 mg/kg/injection, schedule: Q01DX Z (sc), vehicle: methylcellulose (MC).
The mark [4] stands for this setting: dose: 500.0 mg/kg/injection, schedule: Q01DX Z (sc), vehicle: methylcellulose (MC).
Where [5] appears, read: dose: 65.0 mg/kg/injection, schedule: Q01DX Z (sc), vehicle: methylcellulose (MC).

Values joined by “and” are separate entries in the source; they are usually repeats but may differ in a detail not shown here. Equal entries are not always repeated. Inconclusive results and toxic doses are left out.

In the case of `O=C1CN(CCN2CC(=O)NC(=O)C2)CC(=O)N1`, the T/C is 160 % of control (dose: 8.4 mg/kg/injection, schedule: Q03HX024 (sc), vehicle: Klucel (hydroxypropylcellulose) (HPC)); 115 % of control (dose: 12.5 mg/kg/injection, schedule: Q01DX009 (ip), vehicle: steriod suspending solution); 110 % of control (dose: 12.5 mg/kg/injection, schedule: Q01DX009 (sc), vehicle: steriod suspending solution); 165 % of control (dose: 23.0 mg/kg/injection, schedule: Q03HX024 (sc), vehicle: Klucel (hydroxypropylcellulose) (HPC)); 120 % of control (dose: 25.0 mg/kg/injection, schedule: Q01DX009 (ip), vehicle: steriod suspending solution); 100 % of control (dose: 25.0 mg/kg/injection, schedule: Q01DX009 (sc), vehicle: steriod suspending solution). In addition, the T/C is 120 % of control (dose: 39.0 mg/kg/injection, schedule: Q03HX024 (sc), vehicle: Klucel (hydroxypropylcellulose) (HPC)); 120 % of control (dose: 65.0 mg/kg/injection, schedule: Q03HX024 (sc), vehicle: Klucel (hydroxypropylcellulose) (HPC)); 165 % of control (dose: 100.0 mg/kg/injection, schedule: Q01DX009 (ip), vehicle: steriod suspending solution); 105 % of control and 120 % of control (dose: 100.0 mg/kg/injection, schedule: Q01DX009 (sc), vehicle: steriod suspending solution); 105 % of control (dose: 100.0 mg/kg/injection, schedule: Q04DX003 (ip), vehicle: steriod suspending solution); 100 % of control and 110 % of control (dose: 100.0 mg/kg/injection, schedule: Q04DX003 (sc), vehicle: steriod suspending solution). Besides, the T/C is 100 % of control (dose: 200.0 mg/kg/injection, schedule: Q01DX009 (ip), vehicle: steriod suspending solution); 90 % of control (dose: 200.0 mg/kg/injection, schedule: Q01DX009 (sc), vehicle: steriod suspending solution); 100 % of control (dose: 200.0 mg/kg/injection, schedule: Q04DX003 (ip), vehicle: steriod suspending solution); 105 % of control and 115 % of control (dose: 200.0 mg/kg/injection, schedule: Q04DX003 (sc), vehicle: steriod suspending solution); 120 % of control (dose: 300.0 mg/kg/injection, schedule: Q01DX009 (sc), vehicle: Klucel (hydroxypropylcellulose) (HPC)); 100 % of control (dose: 400.0 mg/kg/injection, schedule: Q04DX003 (sc), vehicle: steriod suspending solution). Moreover, the T/C by setting is: (dose: 500.0 mg/kg/injection, schedule: Q01DX009 (sc), vehicle: Klucel (hydroxypropylcellulose) (HPC)) 120 % of control; (dose: 800.0 mg/kg/injection, schedule: Q04DX003 (sc), vehicle: steriod suspending solution) 100 % of control and 120 % of control.
In the case of `O=C(Nc1ccc(C2=NCCN2)cc1)c1ccc(NC(=O)c2ccc(C3=NCCN3)cc2)cc1`, the T/C was 95 % of control under setting [1], 115 % of control under setting [2] and 110 % of control under setting [3].
Regarding `O=C(CCN1CC1)OCCOC(=O)CCN1CC1`, the T/C was 100 % of control (dose: 4.7 mg/kg/injection, schedule: Q01DX Z (sc), vehicle: saline); 100 % of control (dose: 7.8 mg/kg/injection, schedule: Q01DX Z (sc), vehicle: saline); 100 % of control (dose: 13.0 mg/kg/injection, schedule: Q01DX Z (sc), vehicle: saline); 111 % of control (dose: 21.0 mg/kg/injection, schedule: Q01DX Z (sc), vehicle: saline).
Consider `C[C@]12C=CC(=O)C=C1CC[C@@H]1[C@@H]2C(=O)C[C@@]2(C)[C@H]1CC[C@]2(O)C(=O)CO`, for which the T/C runs as follows: (dose: 25.0 mg/kg/injection, schedule: Q01DX009 (sc), vehicle: water) 100 % of control; (dose: 50.0 mg/kg/injection, schedule: Q01DX009 (sc), vehicle: water) 100 % of control; (dose: 100.0 mg/kg/injection, schedule: Q01DX009 (sc), vehicle: water) 100 % of control; (dose: 108.0 mg/kg/injection, schedule: Q01DX Z (sc), vehicle: methylcellulose (MC)) 109 % of control; (dose: 140.0 mg/kg/injection, schedule: Q01DX Z (oral), vehicle: water) 111 % of control; (dose: 140.0 mg/kg/injection, schedule: Q02DX Z (sc), vehicle: water) 122 % of control. Besides, the T/C is, setting by setting: (dose: 180.0 mg/kg/injection, schedule: Q01DX009 (sc), vehicle: water) 116 % of control; under setting [2], 100 % of control; (dose: 180.0 mg/kg/injection, schedule: Q02DX009 (sc), vehicle: steriod suspending solution) 107 % of control; (dose: 180.0 mg/kg/injection, schedule: Q02DX Z (sc), vehicle: steriod suspending solution) 111 % of control; (dose: 200.0 mg/kg/injection, schedule: Q01DX009 (sc), vehicle: water) 100 % of control; (dose: 233.0 mg/kg/injection, schedule: Q01DX Z (oral), vehicle: water) 111 % of control. Besides, the T/C runs as follows: under setting [3], 109 % of control and 112 % of control; (dose: 300.0 mg/kg/injection, schedule: Q02DX009 (sc), vehicle: steriod suspending solution) 104 % of control; (dose: 300.0 mg/kg/injection, schedule: Q02DX Z (sc), vehicle: steriod suspending solution) 105 % of control; (dose: 389.0 mg/kg/injection, schedule: Q01DX Z (oral), vehicle: water) 116 % of control; (dose: 389.0 mg/kg/injection, schedule: Q02DX Z (sc), vehicle: water) 155 % of control; (dose: 400.0 mg/kg/injection, schedule: Q01DX009 (sc), vehicle: water) 88 % of control and 100 % of control. Besides, the T/C was 104 % of control and 112 % of control under setting [4]; 101 % of control (dose: 500.0 mg/kg/injection, schedule: Q02DX009 (sc), vehicle: steriod suspending solution); 100 % of control (dose: 500.0 mg/kg/injection, schedule: Q02DX Z (sc), vehicle: steriod suspending solution); 122 % of control (dose: 648.0 mg/kg/injection, schedule: Q01DX Z (oral), vehicle: water); 94 % of control and 100 % of control (dose: 800.0 mg/kg/injection, schedule: Q01DX009 (sc), vehicle: water); 100 % of control and 112 % of control (dose: 833.0 mg/kg/injection, schedule: Q01DX Z (sc), vehicle: methylcellulose (MC)). The T/C was 103 % of control (dose: 833.0 mg/kg/injection, schedule: Q02DX009 (sc), vehicle: steriod suspending solution); 105 % of control (dose: 833.0 mg/kg/injection, schedule: Q02DX Z (sc), vehicle: steriod suspending solution); 111 % of control (dose: 1080.0 mg/kg/injection, schedule: Q01DX Z (oral), vehicle: water); 155 % of control (dose: 1080.0 mg/kg/injection, schedule: Q02DX Z (sc), vehicle: water); 101 % of control (dose: 1388.0 mg/kg/injection, schedule: Q02DX009 (sc), vehicle: steriod suspending solution); 100 % of control (dose: 1388.0 mg/kg/injection, schedule: Q02DX Z (sc), vehicle: steriod suspending solution).
With `ClCCN(CCCl)c1ccc(CCNc2ccnc3cc(Cl)ccc23)cc1`, the T/C (dose: 14.0 mg/kg/injection, schedule: Q01DX Z (sc), vehicle: methylcellulose (MC)) was 100 % of control and the T/C under setting [5] is 100 % of control.
For `C[C@]12C=CC(=O)C=C1CC[C@@H]1[C@@H]2CC[C@]2(C)OC(=O)CC[C@@H]12`, the T/C was 100 % of control (dose: 23.0 mg/kg/injection, schedule: Q01DX Z (sc), vehicle: methylcellulose (MC)); 100 % of control under setting [1]; 100 % of control under setting [5]; 100 % of control under setting [2]; 100 % of control under setting [3]; 100 % of control under setting [4].
Regarding `CCOC(=O)CCC(NC(=O)N(CCCl)CCCl)C(=O)OCC` (stereo not given), the T/C is 106 % of control (dose: 65.0 mg/kg/injection, schedule: Q01DX Z (sc), vehicle: water); 112 % of control (dose: 108.0 mg/kg/injection, schedule: Q01DX Z (sc), vehicle: water); 100 % of control (dose: 180.0 mg/kg/injection, schedule: Q01DX Z (sc), vehicle: water); 100 % of control (dose: 300.0 mg/kg/injection, schedule: Q01DX Z (sc), vehicle: water); 112 % of control (dose: 500.0 mg/kg/injection, schedule: Q01DX Z (sc), vehicle: water).
As to `CC1CN1CCS(=O)(=O)CCN1CC1C` (stereo not given), the T/C runs as follows: (dose: 5.18 mg/kg/injection, schedule: Q01DX Z (sc), vehicle: saline) 121 % of control; (dose: 8.64 mg/kg/injection, schedule: Q01DX Z (sc), vehicle: saline) 168 % of control; (dose: 14.4 mg/kg/injection, schedule: Q01DX Z (sc), vehicle: saline) 163 % of control; (dose: 24.0 mg/kg/injection, schedule: Q01DX Z (sc), vehicle: saline) 115 % of control; (dose: 40.0 mg/kg/injection, schedule: Q01DX Z (sc), vehicle: saline) 105 % of control.

The values are drawn from PubChem BioAssay AID250 (DTP/NCI, 2004).
